Measurements from publication PMC10247784, “Physiological activation of human and mouse bitter taste receptors by bile acids” (Communications Biology, 2023).

Target: T1, mouse Tas2r144 (Mus musculus, UniProt Q7TQB8)
T1 construct: expressed in transfected cells; host or cells: HEK293T-Gα16gust44
Experiment: Calcium imaging assay (FLIPR), HEK293T-Gα16gust44 cells transfected with mouse Tas2r144
Format: cell-based
Conditions: for Δ F/F: Tas2r144
Procedure: This set of bile acids was chosen because of their commercial availability in high purities, their diversity within the class of bile acids and their previous detection and quantitation in human blood. Stock solutions were prepared in DMSO.
As basal growth medium for the HEK293T-Gα16gust44 cell line[17],[59] served Dulbecco’s modified eagle medium (DMEM) (Thermo Fisher Scientific, Darmstadt, Germany) supplemented with 10 % fetal bovine serum (Sigma-Aldrich, Steinheim, Germany), 2 mM L-glutamine (Sigma-Aldrich, Steinheim, Germany), 100 units/ml penicillin (Sigma Aldrich, Steinheim, Germany) and 100 µg/ml streptomycin (Sigma Aldrich, Steinheim, Germany). Growth conditions were 37 °C, 5 % CO2 and saturated air-humidity[60].
HEK293T-Gα16gust44 cells were seeded on poly-D-lysine (10 µg/ml) coated 96-well plates to reach a confluence of 40-60 % the next day. For transient transfection 150 ng of plasmid DNA containing the receptor of interest and 0.3 µl lipofectamine 2000 (Thermo Fisher Scientific, Darmstadt, Germany) per well were used and transfection took place according to the manual of lipofectamine 2000. […] The empty vector DNA (mock) was transfected as negative control[14],[41].
Cells were loaded using the calcium-sensitive fluorescent dye Fluo-4-AM (Abcam, Cambridge, Great Britain) in the presence of 2.5 mM probenecid (Sigma-Aldrich, Steinheim, Germany) the day after transfection[13],[41]. 1 h after loading, cells were washed with C1 buffer using a BioTek Cell Washer, incubated in the dark for half an hour and washed again. For automated agonist application and measurement of fluorescence changes, a FLIPR^TETRA device (Molecular Devices, San José, United States) was used. Viability of cells was tested by application of 100 nM Somatostatin 14 (Bachem, Bubendorf, Switzerland)[42].
Measured data were negative control corrected by subtracting the signal of the mock-transfected cells and exported to Microsoft Excel using the FLIPR software ScreenWorks 4.2. In Microsoft Excel software, standardization of maximum fluorescence intensities to the basal fluorescence and normalization to the buffer-only control was done to calculate the relative fluorescence changes (ΔF/F).
Initial screening experiments performed in duplicate wells were confirmed by at least one replication and representative traces were selected for display. All dose-response relationships were determined by three independent experiments (biological replicates) performed in duplicates (technical replicates). Threshold concentrations, defined as lowest substance concentrations leading to statistically significant elevated fluorescence changes in receptor-transfected cells compared with empty vector-transfected cells, were determined using SigmaPlot with Student’s t-test to evaluate statistical significance (p < 0.01).

T1 sequence (Q7TQB8 whole entry): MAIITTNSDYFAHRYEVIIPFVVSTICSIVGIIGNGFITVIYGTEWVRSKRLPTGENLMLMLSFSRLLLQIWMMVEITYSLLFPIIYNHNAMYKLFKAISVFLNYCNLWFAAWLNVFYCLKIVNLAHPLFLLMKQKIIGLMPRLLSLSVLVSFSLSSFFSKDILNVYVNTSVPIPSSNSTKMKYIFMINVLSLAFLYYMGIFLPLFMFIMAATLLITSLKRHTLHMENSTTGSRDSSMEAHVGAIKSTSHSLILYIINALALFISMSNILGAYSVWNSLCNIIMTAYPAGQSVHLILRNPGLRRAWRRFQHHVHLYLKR

C[C@H](CCC(=O)NCC(=O)O)[C@H]1CC[C@H]2[C@@H]3[C@H](O)C[C@@H]4C[C@H](O)CC[C@]4(C)[C@H]3C[C@H](O)[C@]12C [Glycocholic Acid, glycocholic acid]
Δ F/F (conc. 0,01 mM): 0.007151
Δ F/F (conc. 0,1 mM): 0.04043
Δ F/F (conc. 0,03 mM): 0.015
Δ F/F (conc. 0,3 mM): 0.08047
Δ F/F (conc. 0,003 mM): 0.00267
RLU (Time 0 s): 0 RLU
RLU (Time 2 s): -31.2125 RLU
RLU (Time 4 s): -43.6447 RLU
RLU (Time 6 s): -0.4257 RLU
RLU (Time 8 s): -5.711 RLU
RLU (Time 12 s): -13.8091 RLU
RLU (Time 14 s): -0.4257 RLU
RLU (Time 16 s): -0.5597 RLU
RLU (Time 18 s): 10.0299 RLU
RLU (Time 18.781 s): -3.913 RLU
RLU (Time 20.781 s): -28.6004 RLU
RLU (Time 22.781 s): -59.2077 RLU
RLU (Time 24.781 s): -17.5148 RLU
RLU (Time 26.781 s): 37.2224 RLU
RLU (Time 28.781 s): 99.9904 RLU
RLU (Time 30.781 s): 135.498 RLU
RLU (Time 32.781 s): 202.624 RLU
RLU (Time 34.781 s): 240.201 RLU
RLU (Time 36.781 s): 276.718 RLU
RLU (Time 38.781 s): 320.611 RLU
RLU (Time 40.781 s): 324.075 RLU
RLU (Time 42.781 s): 335.112 RLU
RLU (Time 44.781 s): 371.949 RLU
RLU (Time 46.781 s): 375.35 RLU
RLU (Time 48.781 s): 395.668 RLU
RLU (Time 50.781 s): 393.283 RLU
RLU (Time 52.781 s): 432.603 RLU
RLU (Time 54.781 s): 444.104 RLU
RLU (Time 56.781 s): 419.562 RLU
RLU (Time 58.781 s): 425.176 RLU
RLU (Time 60.781 s): 431.497 RLU
RLU (Time 62.781 s): 417.317 RLU
RLU (Time 64.781 s): 465.061 RLU
RLU (Time 66.781 s): 447.834 RLU
RLU (Time 68.781 s): 427.827 RLU
RLU (Time 70.781 s): 415.079 RLU
RLU (Time 72.781 s): 432.914 RLU
RLU (Time 74.781 s): 450.52 RLU
RLU (Time 76.781 s): 421.617 RLU
RLU (Time 78.781 s): 441.46 RLU
RLU (Time 80.781 s): 426.566 RLU
RLU (Time 82.781 s): 423.408 RLU
RLU (Time 84.781 s): 393.748 RLU
RLU (Time 86.781 s): 429.403 RLU
RLU (Time 88.781 s): 405.471 RLU
RLU (Time 90.781 s): 401.169 RLU
RLU (Time 92.781 s): 422.993 RLU
RLU (Time 94.781 s): 401.134 RLU
RLU (Time 96.781 s): 381.14 RLU
RLU (Time 98.781 s): 357.346 RLU
RLU (Time 100.781 s): 380.46 RLU
RLU (Time 102.781 s): 368.041 RLU
RLU (Time 104.781 s): 369.437 RLU
RLU (Time 106.781 s): 355.75 RLU
RLU (Time 108.781 s): 354.221 RLU
RLU (Time 110.781 s): 346.013 RLU
RLU (Time 112.781 s): 352.628 RLU
RLU (Time 114.781 s): 328.654 RLU
RLU (Time 116.781 s): 301.02 RLU
RLU (Time 118.781 s): 305.388 RLU
RLU (Time 120.781 s): 301.126 RLU
RLU (Time 122.781 s): 277.354 RLU
RLU (Time 124.781 s): 278.403 RLU
RLU (Time 126.781 s): 268.257 RLU
RLU (Time 128.781 s): 264.093 RLU
RLU (Time 130.781 s): 273.404 RLU
RLU (Time 132.781 s): 241.449 RLU
RLU (Time 134.781 s): 241.405 RLU
RLU (Time 136.781 s): 246.641 RLU
RLU (Time 137.562 s): 213.654 RLU
RLU (Time 143.562 s): 221.818 RLU
RLU (Time 149.562 s): 207.299 RLU
RLU (Time 155.562 s): 180.281 RLU
RLU (Time 161.562 s): 165.822 RLU
RLU (Time 167.562 s): 177.105 RLU
RLU (Time 173.562 s): 151.305 RLU
RLU (Time 179.562 s): 140.777 RLU
RLU (Time 185.562 s): 121.278 RLU
RLU (Time 191.562 s): 122.229 RLU
RLU (Time 197.562 s): 118.034 RLU
RLU (Time 203.562 s): 110.818 RLU
RLU (Time 209.562 s): 87.4457 RLU
RLU (Time 215.562 s): 107.926 RLU
RLU (Time 221.562 s): 45.9427 RLU
RLU (Time 227.562 s): 30.7626 RLU
RLU (Time 233.562 s): 60.9884 RLU
RLU (Time 239.562 s): 58.9568 RLU
RLU (Time 245.562 s): 54.3153 RLU
RLU (Time 293.562 s): 51.7559 RLU
RLU (Time 299.562 s): 74.5788 RLU
RLU (Time 305.562 s): 55.2043 RLU
RLU (Time 311.562 s): 49.25 RLU
RLU (Time 317.562 s): 60.65 RLU
RLU (Time 323.562 s): 55.6278 RLU
RLU (Time 329.562 s): 55.0836 RLU
RLU (Time 335.562 s): 69.3242 RLU
RLU (Time 341.562 s): 66.607 RLU
RLU (Time 347.562 s): 79.0246 RLU
RLU (Time 353.562 s): 84.7807 RLU
RLU (Time 359.562 s): 64.803 RLU
Activation threshold concentration Tas2r144 (p < 0.01 vs empty vector): 100 µM
